# pEC50: −log10 of the molar value.
# Key:
# Wnt transcription = experiment: WNT transcriptional reporter assay (Super(8×)TOPflash luciferase, HEK293T cells); assay type: cell-based; details: Homo sapiens, HEK-293T, Wnt3A-expressing vector, 20 hrs, relative to cells treated with DMSO alone, read-out: Wnt transcription potency
# Source text: Commercially available Super(8×)TOPflash vector driven by a (7×) TCF-firefly luciferase response element was transiently transfected into HEK293T cells, together with a TK-driven Renilla luciferase plasmid as an internal control to normalize the luminescence signal and a Wnt3A-expressing vector as the source of pathway activation. HEK293T cells were transfected with plasmids in DMEM plus 10% fetal bovine serum (FBS) for 8 hr, replated to 96-well plates in DMEM plus 10% FBS followed by treatment with compounds (1.6 nM to 5 M) (DMSO final concentration is 0.5%) for 20 hrs. Firefly and Renilla luciferase activities were measured and normalized by the Renilla luciferase values.
# [1] = test system: nude, immunodeficient Bg-Nu-XID female mice; experiment: Intramuscular osteoinduction: implants in biceps femoris of immunodeficient mice, histology after 8 weeks; assay type: in vivo
# Description: Mice were divided into groups according to the experimental design: i) uninduced hMSCs that were treated with vehicle alone (i.e., 0.1% DMSO, final concentration) for 8 days then combined with TCP ceramic matrix, and ii) induced hMSCs that were treated with 3 (500 nM) in the presence of TCP ceramic matrix (5 mg/mL) for 8 days, and iii) TCP ceramic matrix (i.e. no cells) mock cultured for 8 days. The TCP ceramic matrix used was […] granules. […] MEM medium was added to existing PBS (pH 6.5) cell incubations to effect a 500 nM final concentration.
# Isolation of Compound-Induced hMSCs and their Cryopreservation (FIG. 5, Steps 4-5). At the end of an 8-day cell culture period, the cells were washed three times with 1 ml PBS (50 mM, pH 7.4), and removed from the 6-well plate by trypsinization. For induced cells, the TCP granules that remained on the plate were retained. After three washes with PBS (50 mM, pH 7.4), cells were centrifuged at 1200× g for 3 min. The cell pellet was recombined with TCP ceramic taken from cell culture and the mixture was suspended in 1 mL freezing medium (MEM essential containing 20% FBS and 5% DMSO). Before cryopreservation of the cell-TCP mixture in liquid nitrogen, a 10 μl aliquot of each sample was taken and used to count the cells, or to confirm ALP functional activity and mRNA biomarker expression (i.e., Osteocalcin, Collagen I) in advance of implantation.
# Preparation of Implants for Surgery (FIG. 5, Steps i and ii). On the day of surgery, implants comprised of either i) TCP ceramic matrix, ii) hMSCs (0.5 million) and 5 mg TCP ceramic matrix, or iii) compound-induced hMSCs (0.5 million) and 5 mg TCP ceramic matrix were prepared for transplantation. Frozen cell/ceramic suspensions were thawed and washed three times with PBS (50 mM, pH 7.4). All implants were combined with a bioadhesive just prior to implantation in mice. […]
# Surgical Implantation of Compositions of the Invention (FIG. 5, Step iii). […] Mice were monitored throughout surgery and thereafter for maintenance of the surgical plane of anesthesia. […]
# [2] = implants of hMSCs induced 8 days with compound (500 nM) and TCP ceramic matrix, intramuscular, mice, 8 weeks
smiles,measurement,setting,value
"CC(=O)N1c2ccc(C)cc2[C@H](Nc2ccc(C)cc2)C[C@@H]1C (relative stereo) [Compound 1, cis-1-acetyl-2,6-dimethyl-N-(p-methylphenyl)-1,2,3,4-tetrahydroquinolin-4-amine]",pEC50,Wnt transcription,> 7.82
"CC(C)[C@H](N)C(=O)Oc1ccc(C=CC(=O)C=C(O)C=Cc2ccc(OC(=O)[C@@H](N)C(C)C)cc2)cc1 [Compound 3, (2S,2′S)—O,O′-(3-hydroxy-5-oxohepta-1,3,6-triene-1,7-diyl)bis(4,1-phenylene) bis(2-amino-3-methylbutanoate)]","osteoid score (0-4), median and 75th percentile, versus non-induced hMSCs on TCP matrix or TCP matrix alone","[1]; blinded observers, H&E sections, 8 weeks post-implantation",significantly (p<0.005) higher
same,osteoid in the ROI relative to implants comprised of TCP alone (densitometry),[1]; [2],2.1 fold
same,osteoid in the ROI relative to implants of non-induced hMSCs and TCP ceramic matrix (densitometry),[1]; [2],1.3 fold

# Reference: patent publication US11596716B2, “Compounds and matrices for use in bone growth and repair” (Human BioMolecular Research Institute, priority 2013, dated 2023)
